Results published in US10808275B2, “Use of at least one chromogenic and/or fluorogenic phosphatase substrate for the detection and/or enumeration of enterobacteria in a sample” (BIOMERIEUX, priority 2013, dated 2020).

Assays:
enterobacteria = assay: Specificity of phosphatase substrates: growth and coloration of enterobacteria strains on chromogenic agar media; format: cell-based; settings: for coloration: % of enterobacteria strains coloured; for coloration >= 1: % of enterobacteria strains positive (intensity >= 1 on 0-4 reading scale); for growth: enterobacteria strains grown / 31 tested
Description: (§1) 38 bacterial strains, among which 31 enterobacteria and 7 non-enterobacteria, were tested on media containing various phosphatase substrates. Readings of the dishes were then taken at 24 h.
(§2) Then phosphatase substrates are added as follows: • Medium 1: addition of X-phosphate (X-P) at 60 mg/l • Medium 2: addition of Rose-phosphate (Rose-P) at 300 mg/L • Medium 3: addition of Magenta-phosphate (Magenta-P) at 300 mg/L • Medium 4: addition of Purple-phosphate (Purple-P) at 200 mg/L
(§3) The media are divided into Petri dishes.
(§4) Inoculation is performed from 24 h pre-cultures at 30° C. or 37° C., depending on the species, on Trypticase-soy medium.
(§5) Suspension in 0.5 McF physiological water is performed, and then the strains are inoculated with a 10 μl calibrated oese.
(§6) Readings are taken after 24 h and 48 h of incubation at 37° C.
(§7) Colonies with coloration intensities greater than or equal to 1 were considered positive, applying the reading scale below.
(§8) Reading scale of enzymatic activity/coloration • 0=no activity • 0.5=very pale coloration • 1=low-intensity distinct coloration • 2=medium-intensity obvious coloration • 3=intense coloration present, • 4=highly intense coloration present.

[1] = tested on: non-fermenting Gram-negative; assay: Specificity of phosphatase substrates: growth and coloration of non-enterobacteria strains on chromogenic agar media; format: cell-based, non-fermenting Gram-negative bacteria; settings: for coloration >= 1: % positive non-fermenting Gram-negative strains; for growth: non-fermenting Gram-negative strains grown / 7 tested
Description: as §1, §2, §3, §4, §5, §6, §7, §8

5-bromo-6-chloro-3-indoxyl-phosphate [Magenta-P]
sensitivity of the substrate compared with the other substrates (enterobacteria; 24 h): most sensitive
sensitivity of the substrate compared with the other substrates (enterobacteria; 48 h): largely identical
coloration (enterobacteria; 48 h at 37° C.): 100%
coloration >= 1 (enterobacteria; 24 h at 37° C.): 90%
growth (enterobacteria; 24 h at 37° C.): 30/31
growth (enterobacteria; 48 h at 37° C.): 31/31
coloration >= 1 ([1]; 24 h at 37° C.): 0%
coloration >= 1 ([1]; 48 h at 37° C.): 0%
growth ([1]; 24 h at 37° C.): 5/7
growth ([1]; 48 h at 37° C.): 7/7

O=P(O)(O)Oc1c[nH]c2cc(Cl)ccc12 [Rose-P, 6-chloro-3-indoxyl-phosphate]
sensitivity of the substrate compared with the other substrates (enterobacteria; 24 h): least sensitive
sensitivity of the substrate compared with the other substrates (enterobacteria; 48 h): least sensitive
coloration (enterobacteria; 48 h at 37° C.): 94%
coloration >= 1 (enterobacteria; 24 h at 37° C.): 77%
growth (enterobacteria; 24 h at 37° C.): 30/31
growth (enterobacteria; 48 h at 37° C.): 31/31
coloration >= 1 ([1]; 24 h at 37° C.): 0%
coloration >= 1 ([1]; 48 h at 37° C.): 0%
growth ([1]; 24 h at 37° C.): 5/7
growth ([1]; 48 h at 37° C.): 7/7

O=P(O)(O)Oc1c[nH]c2ccc(Br)c(Cl)c12 [X-P, 5-bromo-4-chloro-3-indoxyl-phosphate]
sensitivity of the substrate compared with the other substrates (enterobacteria; 24 h): most sensitive
sensitivity of the substrate compared with the other substrates (enterobacteria; 48 h): largely identical
coloration (enterobacteria; 48 h at 37° C.): 97%
coloration >= 1 (enterobacteria; 24 h at 37° C.): 90%
growth (enterobacteria; 24 h at 37° C.): 30/31
growth (enterobacteria; 48 h at 37° C.): 31/31
coloration >= 1 ([1]; 24 h at 37° C.): 0%
coloration >= 1 ([1]; 48 h at 37° C.): 0%
growth ([1]; 24 h at 37° C.): 7/7
growth ([1]; 48 h at 37° C.): 7/7
